Several values for one entry are separate records, joined by “and”; a condition that tells them apart may be missing. Equal entries are not always repeated.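 In this assay, cells in 96-well plates receive the compound at five concentrations for 48 hours. Endpoints are linearly interpolated between the surrounding concentrations. The concentration for 50% growth inhibition is given as GI50. TGI: total growth inhibition.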
Columns and labels:
Experiment in all cases: DTP human tumour cell line panel, 48 h
[1] = tested on: HS 578T breast
[2] = tested on: SK-MEL-5 melanoma
[3] = tested on: SR leukemia
[4] = tested on: RPMI-8226 leukemia
[5] = tested on: OVCAR-8 ovarian
[6] = tested on: IGROV1 ovarian
[7] = tested on: HOP-62 NSCLC
[8] = tested on: MALME-3M melanoma
[9] = tested on: OVCAR-3 ovarian
[10] = tested on: MOLT-4 leukemia

Compound	GI50 [1] [µM]	TGI [1]	GI50 [2]	TGI [2]	GI50 [3]	TGI [3] [µM]	GI50 [4]	TGI [4] [µM]	GI50 [5]	TGI [5]	GI50 [6]	TGI [6]	GI50 [7]	TGI [7]	GI50 [8]	TGI [8]	GI50 [9] [µM]	TGI [9]	GI50 [10]	TGI [10] [µM]
COc1ncc(-c2ccc3ncnc(Nc4cccc(Cl)c4)c3c2)cc1NS(=O)(=O)C1CC1	0.365	> 100 µM	> 100 µM	> 100 µM	> 100 µM	> 100	> 100 µM	> 100	2.18 µM	> 100 µM	–	–	–	–	–	–	–	–	–	–
CCOC(=O)c1c(NC(=O)c2cccc(C(F)(F)F)c2)sc2c(CN(C)C)c(O)ccc12	6.78	26.4 µM	2.36 µM	5.72 µM	3.16 µM	6.92	–	–	6.12 µM	18.8 µM	12.2 µM	28.8 µM	13.8 µM	27.7 µM	1.71 µM	3.22 µM	10.1	21.7 µM	3.77 µM	38.8
C#COc1cccc(Nc2c(C#N)cnc3ncc(NC(=O)CCl)cc23)c1	> 62.5	> 62.5 µM	> 62.5 µM	> 62.5 µM	17.6 µM	> 62.5	> 62.5 µM	> 62.5	46 µM	> 62.5 µM	17.1 µM	> 62.5 µM	> 62.5 µM	> 62.5 µM	55.4 µM	> 62.5 µM	25.3	> 62.5 µM	4.2 µM	> 62.5
COc1ccc(-n2c(C)cc(-c3ccccc3)c2C)cc1	4.58	> 100 µM	1.77 µM	4.86 µM	1.3 µM	5.75	1.49 µM	5.02	3.51 µM	38 µM	4.23 µM	34.8 µM	6.68 µM	67.8 µM	1.78 µM	4.53 µM	2.61	10.7 µM	–	–
COc1cc(OC)c(/C=C/c2c3ccccc3cc[n+]2C)c(OC)c1	2.43	37.5 µM	0.642 µM	2.21 µM	2 µM	41.2	0.377 µM	6.92	2.27 µM	12.4 µM	2.32 µM	19.8 µM	3.52 µM	> 33.7 µM	2.32 µM	15.4 µM	1.23	9.78 µM	3.1 µM	32.8
CC[C@H]1CN2CCc3cc(OC)c(OC)cc3[C@@H]2C[C@@H]1C[C@H]1NCCc2c1[nH]c1ccc(O)cc21	–	0.0653 µM and 0.0327 µM	0.0234 µM and 0.14 µM	0.0553 µM and 0.294 µM and 0.0304 µM	0.0152 µM and 0.0333 µM	–	0.0272 µM and 0.0305 µM	–	0.0323 µM and 0.0377 µM	–	0.0267 µM and 0.0328 µM	0.0806 µM and 0.159 µM and 0.196 µM	0.0264 µM and 0.0298 µM	0.0748 µM and 0.0941 µM and 0.0488 µM	0.047 µM and 0.336 µM	0.113 µM and 0.744 µM and 0.184 µM	0.0156	0.0622 µM and 0.089 µM and 0.25 µM	0.0117 µM and 0.0272 µM	–
C1=C\COCc2cc(ccc2OCCN2CCCC2)Nc2nccc(n2)-c2cccc(c2)COC/1	1.18	5.78 µM	–	–	0.306 µM	1.62	3.12 µM	6.35	3.22 µM	7.32 µM	0.871 µM	3.85 µM	2.47 µM	6.56 µM	2.13 µM	5.32 µM	2.01	5.57 µM	1.33 µM	4.9
OCc1ccn2c1[C@@H](O)CC2	–	> 100 µM	–	> 100 µM	–	> 100	–	> 100	–	> 100 µM	–	> 100 µM	–	> 100 µM	–	> 100 µM	–	> 100 µM	–	> 100
C=C1C(=O)O[C@H]2[C@H]1CC/C(COC(=O)/C=C\C(=O)NCc1ccc(Cn3c(=O)sn(CCCC)c3=O)cc1)=C\CC[C@@]1(C)O[C@@H]21	1.3	3.32 µM	1.4 µM	2.71 µM	0.288 µM	> 100	0.274 µM	0.949	0.828 µM	3.32 µM	0.556 µM	1.73 µM	1.63 µM	3.46 µM	1.35 µM	2.71 µM	0.229	0.589 µM	0.34 µM	1.52
CC(=O)Oc1ccccc1C(=O)Nc1ncc([N+](=O)[O-])s1	1.94	9.97 µM and > 37.5 µM	1.5 µM	3.7 µM and 33 µM	2.32 µM	7.99	0.677 µM	> 100	2.73 µM	25.1 µM and > 100 µM	2.85 µM	20.8 µM and > 100 µM	4.45 µM	> 75.6 µM	1.48 µM	–	2.76	13.1 µM and 36.6 µM	2.64 µM	–
CCOc1ccncc1[N+](=O)[O-]	–	> 100 µM	–	> 100 µM	–	> 100	–	> 100	–	> 100 µM	–	> 100 µM	–	> 100 µM	–	> 100 µM	–	–	–	> 100
N#CC1=C(N)Oc2cc(O)ccc2C1c1cccc2ccccc12 (stereo not given)	16.6	73 µM	4.83 µM	19.4 µM	3.26 µM	14.8	10.9 µM	41.7	23.7 µM	66.1 µM	13.1 µM	29.4 µM	13.5 µM	31.7 µM	25.8 µM	> 100 µM	4.07	16.6 µM	5.58 µM	31.3
COC(=O)[C@@H](C)C[C@H](Cc1ccccc1)NC(=O)c1csc([C@@H](C[C@H](C(C)C)N(C)C(=O)[C@@H](NC(=O)[C@H]2CCCCN2C)C2CCCCC2)OC(C)=O)n1	0.0026	–	–	0.0131 µM and 0.0115 µM	0.000274 µM and 0.0025 µM	2.9	0.000324 µM and 0.0025 µM	3.64	0.00354 µM and 0.0025 µM	> 25 µM	0.000631 µM and 0.0025 µM	> 25 µM	0.00213 µM and 0.0025 µM	> 25 µM	–	–	–	–	0.00512 µM and 0.0025 µM	4.87
COc1ccc(CCNC(=O)c2ccc(NC3=C(Cl)C(=O)N(Cc4ccccc4)C3=O)cc2)cc1OC	4.62	> 100 µM	6.27 µM	42.3 µM	1.44 µM	3.15	2.27 µM	6.5	11.9 µM	> 100 µM	–	–	45 µM	> 100 µM	–	–	10.9	> 100 µM	2.28 µM	4.78
c1ccc2nc3c(nc2c1)sc1ccccc13	–	> 100 µM	–	> 100 µM	–	> 100	–	> 100	–	–	–	51 µM	–	73.6 µM	–	> 100 µM	–	> 100 µM	–	> 100

— PubChem BioAssay (NCI)
